By pIC50 is commonly meant the IC50 on a negative log10 scale, so that one unit is a factor of ten.

This passage reports IC50 results from patent US20130338106A1, “COMPOUNDS INHIBITING LEUCINE-RICH REPEAT KINASE ENZYME ACTIVITY” (priority 2011, published 2013).

In the assay the target is T1, LRRK2 G2019S mutant kinase (Homo sapiens, UniProt Q5S007, G2019S).
T1 construct: GST; purchased Invitrogen PV4882
In words: LRRK2 G2019S LanthaScreen TR-FRET kinase assay. In kind it is biochemical. Conditions: LRRK2 G2019S GST-tagged protein, 100 μM ATP, LRRKtide substrate; read-out: IC50 (potency). The method, then: Activity of compounds against LRRK2 G2019S mutant kinase function was tested in a LANTHAScreen® assay as follows: Compounds were diluted in 100% DMSO to the desired test concentrations in white, low-volume 384-well plates (PerkinElmer ProxiPlate® PN: 6008280). TR-FRET kinase reactions (10 μL) were performed with 75 nM Fluorescein-ERM (LRRKtide, Invitrogen, PN:PV4901) substrate in a final assay buffer containing 100 μM ATP and 2 mM DTT diluted in commercially available Kinase Buffer S (Invitrogen PN: PV5213). The final solvent concentration in the assay was 1% DMSO. Reactions were initiated with the addition of 10 ng/well of LRRK2 02019S, GST-tagged protein (Invitrogen PN: PV4882). After incubation of the foil sealed reaction plates at room temperature with low speed mixing for 1 hour, the kinase reaction was stopped and the amount of substrate phosphorylation was detected by addition of 10 μL of 10 mM EDTA and 2 nM Tb-anti-pERM (pLRRKtide antibody, Invitrogen, PN: PV4898) antibody in TR-FRET dilution buffer (Invitrogen PN: PV3574). After a 30 minute incubation at room temperature with low speed mixing, foil seals were removed and measurements were obtained on a PerkinElmer EnVision with excitation 340 nm, emission 520 nm (channel 1): 495 nm (channel 2) settings. Generation of raw data and workup of data to derive the IC50 (potency) and maximal inhibition at concentrations tested were performed using Merck's Assay Data Analyzer (ADA) software.
In general terms: In TR-FRET formats the signal depends on donor and acceptor labels being close together.

pIC50: −log10 of the molar value.

T1 sequence (Q5S007 whole entry G2019S): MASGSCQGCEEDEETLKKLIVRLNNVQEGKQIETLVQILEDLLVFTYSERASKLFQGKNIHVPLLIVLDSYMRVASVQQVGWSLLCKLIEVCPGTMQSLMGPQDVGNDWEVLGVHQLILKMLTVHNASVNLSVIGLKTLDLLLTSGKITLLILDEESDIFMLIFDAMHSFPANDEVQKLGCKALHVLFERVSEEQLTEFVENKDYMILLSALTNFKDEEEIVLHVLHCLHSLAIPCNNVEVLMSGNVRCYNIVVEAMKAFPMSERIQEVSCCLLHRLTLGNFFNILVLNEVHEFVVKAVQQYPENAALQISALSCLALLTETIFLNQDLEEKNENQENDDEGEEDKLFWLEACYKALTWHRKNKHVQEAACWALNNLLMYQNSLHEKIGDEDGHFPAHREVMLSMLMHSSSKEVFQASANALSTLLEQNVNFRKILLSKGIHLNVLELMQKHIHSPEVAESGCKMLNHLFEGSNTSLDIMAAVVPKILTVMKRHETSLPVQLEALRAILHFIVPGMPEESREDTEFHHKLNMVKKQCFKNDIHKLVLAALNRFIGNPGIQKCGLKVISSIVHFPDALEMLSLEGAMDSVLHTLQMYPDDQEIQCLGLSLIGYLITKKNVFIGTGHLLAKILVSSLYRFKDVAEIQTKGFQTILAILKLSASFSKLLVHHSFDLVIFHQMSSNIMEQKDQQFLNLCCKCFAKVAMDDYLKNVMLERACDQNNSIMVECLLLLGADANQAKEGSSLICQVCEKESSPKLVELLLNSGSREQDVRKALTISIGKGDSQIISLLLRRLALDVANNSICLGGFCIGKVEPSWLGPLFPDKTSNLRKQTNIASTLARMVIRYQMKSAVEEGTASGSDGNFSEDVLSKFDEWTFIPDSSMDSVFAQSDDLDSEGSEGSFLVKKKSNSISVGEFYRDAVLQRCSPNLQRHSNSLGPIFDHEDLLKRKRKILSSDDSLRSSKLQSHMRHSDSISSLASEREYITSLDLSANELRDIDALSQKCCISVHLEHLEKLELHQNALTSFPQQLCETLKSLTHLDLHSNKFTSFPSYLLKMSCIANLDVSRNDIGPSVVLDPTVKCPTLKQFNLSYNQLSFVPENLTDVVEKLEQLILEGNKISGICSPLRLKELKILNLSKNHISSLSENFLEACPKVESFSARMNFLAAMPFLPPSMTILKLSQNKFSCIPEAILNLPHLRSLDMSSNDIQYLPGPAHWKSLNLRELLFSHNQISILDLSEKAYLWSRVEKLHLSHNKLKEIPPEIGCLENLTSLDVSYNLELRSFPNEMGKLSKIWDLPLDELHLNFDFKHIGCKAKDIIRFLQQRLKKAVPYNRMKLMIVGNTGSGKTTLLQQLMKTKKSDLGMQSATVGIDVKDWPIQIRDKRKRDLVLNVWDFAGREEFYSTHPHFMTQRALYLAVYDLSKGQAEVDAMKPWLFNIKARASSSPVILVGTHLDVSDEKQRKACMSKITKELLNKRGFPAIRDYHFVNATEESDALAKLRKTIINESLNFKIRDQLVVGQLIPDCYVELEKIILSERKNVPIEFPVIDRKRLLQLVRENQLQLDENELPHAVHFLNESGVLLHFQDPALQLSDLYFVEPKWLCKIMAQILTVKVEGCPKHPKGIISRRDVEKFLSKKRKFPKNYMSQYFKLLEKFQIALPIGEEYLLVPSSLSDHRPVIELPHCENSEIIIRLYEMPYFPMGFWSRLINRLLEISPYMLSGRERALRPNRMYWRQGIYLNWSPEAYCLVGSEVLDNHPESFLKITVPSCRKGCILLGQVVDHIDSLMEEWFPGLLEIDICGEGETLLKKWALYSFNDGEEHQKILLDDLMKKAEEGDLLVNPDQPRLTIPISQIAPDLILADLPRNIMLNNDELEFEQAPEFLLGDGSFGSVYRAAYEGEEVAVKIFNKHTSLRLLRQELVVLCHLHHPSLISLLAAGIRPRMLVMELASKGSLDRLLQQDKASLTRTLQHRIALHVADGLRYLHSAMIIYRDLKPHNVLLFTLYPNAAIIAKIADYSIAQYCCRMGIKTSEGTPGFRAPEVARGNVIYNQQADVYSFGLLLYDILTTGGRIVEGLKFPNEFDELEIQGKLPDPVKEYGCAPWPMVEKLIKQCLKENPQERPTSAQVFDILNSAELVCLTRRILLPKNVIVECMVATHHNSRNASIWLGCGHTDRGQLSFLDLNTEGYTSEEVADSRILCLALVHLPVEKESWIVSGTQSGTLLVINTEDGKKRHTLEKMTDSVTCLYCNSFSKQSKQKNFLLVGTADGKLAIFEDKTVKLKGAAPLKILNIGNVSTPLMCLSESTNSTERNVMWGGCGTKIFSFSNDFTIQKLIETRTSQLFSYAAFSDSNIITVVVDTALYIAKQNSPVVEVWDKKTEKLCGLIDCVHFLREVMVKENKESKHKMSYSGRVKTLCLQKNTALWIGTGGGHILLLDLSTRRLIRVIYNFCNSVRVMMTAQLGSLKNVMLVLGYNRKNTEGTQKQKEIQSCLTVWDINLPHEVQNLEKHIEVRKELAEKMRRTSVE

In the case of `CC1(C)CC(=O)c2c(SC3CCCC3)sc(-c3ccn(C(=O)Nc4cccc(C#N)c4)n3)c2C1` [Example 68, N-(3-Cyanophenyl)-3-[3-(cyclopentylsulfanyl)-6,6-dimethyl-4-oxo-4,5,6,7-tetrahydro-2-benzothiophen-1-yl]-1H-pyrazole-1-carboxamide], the pIC50 was 6.89.

As to `CC1(C)CC(=O)c2c(SC3CCCC3)sc(-c3ccn(C(=O)NCCc4ccccc4)n3)c2C1` [Example 69, 3-[3-(Cyclopentylsulfanyl)-6,6-dimethyl-4-oxo-4,5,6,7-tetrahydro-2-benzothiophen-1-yl]-N-(2-phenylethyl)-1H-pyrazole-1-carboxamide], the negative logarithm of the IC50 (pIC50) is 5.38. For the compound `CC1(C)CC(=O)c2c(SC3CCCC3)sc(-c3ccn(C(=O)NC(C)(C)C)n3)c2C1` [Example 70, N-tert-Butyl-3-[3-(cyclopentylsulfanyl)-6,6-dimethyl-4-oxo-4,5,6,7-tetrahydro-2-benzothiophen-1-yl]-1H-pyrazole-1-carboxamide], the pIC50 is 5.89. Consider `CCC(C)NC(=O)n1ccc(-c2sc(SC3CCCC3)c3c2CC(C)(C)CC3=O)n1` (stereo not shown) [Example 71, N-(Butan-2-yl)-3-[3-(cyclopentylsulfanyl)-6,6-dimethyl-4-oxo-4,5,6,7-tetrahydro-2-benzothiophen-1-yl]-1H-pyrazole-1-carboxamide], for which the pIC50 is 5.77. The figure for `CNC(=O)n1ccc(-c2sc(SC3CCCC3)c3c2CC(C)(C)CC3=O)n1` [Example 72, 3-[3-(Cyclopentylsulfanyl)-6,6-dimethyl-4-oxo-4,5,6,7-tetrahydro-2-benzothiophen-1-yl]-N-methyl-1H-pyrazole-1-carboxamide] is 5.77.

Regarding `CC1(C)CC(=O)c2c(NC3CCCC3)sc(-c3ccn(C(=O)Nc4ccc(Cl)cc4)n3)c2C1` [Example 73, N-(4-Chlorophenyl)-3-[3-(cyclopentylamino)-6,6-dimethyl-4-oxo-4,5,6,7-tetrahydro-2-benzothiophen-1-yl]-1H-pyrazole-1-carboxamide], the pIC50 was 6.55.

As to `CC1(C)CC(=O)c2c(NC3CCCC3)sc(-c3ccn(C(=O)Nc4ccc(C#N)cc4)n3)c2C1` [Example 74, N-(4-Cyanophenyl)-3-[3-(cyclopentylamino)-6,6-dimethyl-4-oxo-4,5,6,7-tetrahydro-2-benzothiophen-1-yl]-1H-pyrazole-1-carboxamide], the pIC50 is 6.72. Regarding `CC1(C)CC(=O)c2c(NC3CCCC3)sc(-c3ccn(C(=O)Nc4ccncc4)n3)c2C1` [Example 75, 3-[3-(Cyclopentylamino)-6,6-dimethyl-4-oxo-4,5,6,7-tetrahydro-2-benzothiophen-1-yl]-N-(pyridin-4-yl)-1H-pyrazole-1-carboxamide], the pIC50 is 6.14. For `CCCC(=O)n1ccc(-c2sc(SC3CCCC3)c3c2CC(C)(C)CC3=O)n1` [Example 76, 1-(1-Butanoyl-1H-pyrazol-3-yl)-3-(cyclopentylsulfanyl)-6,6-dimethyl-6,7-dihydro-2-benzothiophen-4(5H)-one], the pIC50 was 6.01. Consider `CC1(C)CC(=O)c2c(SC3CCCC3)sc(-c3ccn(C(=O)c4ccc(C#N)cc4)n3)c2C1` [Example 77, 4-({3-[3-(Cyclopentylsulfanyl)-6,6-dimethyl-4-oxo-4,5,6,7-tetrahydro-2-benzothiophen-1-yl]-1H-pyrazol-1-yl}carbonyl)benzonitrile], for which the pIC50 is 6.59. The figure for `CC(C)C(=O)n1ccc(-c2sc(SC3CCCC3)c3c2CC(C)(C)CC3=O)n1` [Example 78, 3-(Cyclopentylsulfanyl)-6,6-dimethyl-1-[1-(2-methylpropanoyl)-1H-pyrazol-3-yl]-6,7-dihydro-2-benzothiophen-4(5H)-one] is 5.82; for `CC1(C)CC(=O)c2c(SC3CCCC3)sc(-c3ccn(C(=O)Cc4ccc(Cl)cc4)n3)c2C1` [Example 79, 1-{1-[(4-Chlorophenyl)acetyl]-1H-pyrazol-3-yl}-3-(cyclopentylsulfanyl)-6,6-dimethyl-6,7-dihydro-2-benzothiophen-4(5H)-one] it is 6.22; for `CC1(C)CC(=O)c2c(SC3CCCC3)sc(-c3ccn(C(=O)c4ccc(Cl)nc4)n3)c2C1` [Example 80, 1-{1-[(6-Chloropyridin-3-yl)carbonyl]-1H-pyrazol-3-yl}-3-(cyclopentylsulfanyl)-6,6-dimethyl-6,7-dihydro-2-benzothiophen-4(5H)-one] it is 6.24.

As to `CC1(C)CC(=O)c2c(SC3CCCC3)sc(-c3ccn(C(=O)c4ccc(F)cc4)n3)c2C1` [Example 81, 3-(Cyclopentylsulfanyl)-1-{1-[(4-fluorophenyl)carbonyl]-1H-pyrazol-3-yl}-6,6-dimethyl-6,7-dihydro-2-benzothiophen-4(5H)-one], the pIC50 was 6.01. Then `COc1ccc(C(=O)n2ccc(-c3sc(SC4CCCC4)c4c3CC(C)(C)CC4=O)n2)cc1` [Example 82, 3-(Cyclopentylsulfanyl)-1-{1-[(4-methoxyphenyl)carbonyl]-1H-pyrazol-3-yl}-6,6-dimethyl-6,7-dihydro-2-benzothiophen-4(5H)-one], with 5.47. Consider `CC1(C)CC(=O)c2c(SC3CCCC3)sc(-c3ccn(C(=O)C4CCCCC4)n3)c2C1` [Example 83, 1-[1-(Cyclohexylcarbonyl)-1H-pyrazol-3-yl]-3-(cyclopentylsulfanyl)-6,6-dimethyl-6,7-dihydro-2-benzothiophen-4(5H)-one], for which the pIC50 was 5.40. The figure for `CC1(C)CC(=O)c2c(SC3CCCC3)sc(-c3ccn(C(=O)c4ccc(F)c(F)c4)n3)c2C1` [Example 84, 3-(Cyclopentylsulfanyl)-1-{1-[(3,4-difluorophenyl)carbonyl]-1H-pyrazol-3-yl}-6,6-dimethyl-6,7-dihydro-2-benzothiophen-4(5H)-one] is 6.40; for `CSc1sc(-c2ccn(C(=O)OC(C)(C)C)n2)c2c1C(=O)CCC2` [Example 85, tert-Butyl 3-[3-(methylsulfanyl)-4-oxo-4,5,6,7-tetrahydro-2-benzothiophen-1-yl]-1H-pyrazole-1-carboxylate] it is 5.96. In the case of `O=C1CCCc2c(-c3ccn(C(=O)Nc4ccc(Cl)cc4)n3)sc(SC3CCCC3)c21` [Example 86, N-(4-chlorophenyl)-3-[3-(cyclopentylsulfanyl)-4-oxo-4,5,6,7-tetrahydro-2-benzothiophen-1-yl]-1H-pyrazole-1-carboxamide], the pIC50 was 7.18.

For the compound `N#Cc1ccc(NC(=O)n2ccc(-c3sc(NC4CCCC4)c4c3CCCC4=O)n2)cc1` [Example 87, N-(4-cyanophenyl)-3-[3-(cyclopentylamino)-4-oxo-4,5,6,7-tetrahydro-2-benzothiophen-1-yl]-1H-pyrazole-1-carboxamide], the pIC50 was 6.48. Then `CSc1sc(-c2cc(C)[nH]n2)c2c1C(=O)CC(C)(C)C2` [Example 88, 6,6-Dimethyl-1-(5-methyl-1H-pyrazol-3-yl)-3-(methylsulfanyl)-6,7-dihydro-2-benzothiophen-4(5H)-one], with 5.85; and `CSc1sc(-c2cc(C3CC3)[nH]n2)c2c1C(=O)CC(C)(C)C2` [Example 89, 1-(5-Cyclopropyl-1H-pyrazol-3-yl)-6,6-dimethyl-3-(methylsulfanyl)-6,7-dihydro-2-benzothiophen-4(5H)-one], with 6.33. Then `CCc1cc(-c2sc(SC)c3c2CC(C)(C)CC3=O)n[nH]1` [Example 90, 1-(5-Ethyl-1H-pyrazol-3-yl)-6,6-dimethyl-3-(methylsulfanyl)-6,7-dihydro-2-benzothiophen-4(5H)-one], with 6.35. As for `CSc1sc(-c2cc[nH]n2)c2c1C(=O)C(C)CC2` (stereo not shown) [Example 91, 5-Methyl-3-(methylsulfanyl)-1-(1H-pyrazol-3-yl)-6,7-dihydro-2-benzothiophen-4(5H)-one], the pIC50 was 6.82. With `CCCC1CCc2c(-c3cc[nH]n3)sc(SC)c2C1=O` (stereo not shown) [Example 92, 3-(Methylsulfanyl)-5-propyl-1-(1H-pyrazol-3-yl)-6,7-dihydro-2-benzothiophen-4(5H)-one], the pIC50 is 6.51.
